Experimental data as given in article PMC8347307, “Preclinical Bioavailability, Tissue Distribution, and Protein Binding Studies of Erinacine A, a Bioactive Compound from Hericium erinaceus Mycelia Using Validated LC-MS/MS Method” (Molecules, 2021).
“And” between values parts separate entries of the source, which are not always exact repeats. Equal values may be shown once. Read-outs that look alike come from different tables or passages of the source.

Experiments:
[1] = Pharmacokinetic study, erinacine A in rat plasma after oral and intravenous administration; type: in vivo, Sprague-Dawley rats
Procedure: Analysis of erinacine A concentration in samples was conducted by Agilent 1100 series HPLC system (Agilent, Waldbronn, Germany) equipped with a G1376A capillary pump and a G1313A autosampler. Chromatographic separation was carried out in an Agilent Eclipse XDB-C18 column (3.5 µm, 4.6 × 100 mm) at 25 °C. The mobile phase consists of water (A) and acetonitrile (B) with gradient elution program as follows: 0 min, 70% B; 0–5 min, 70–100% B; 5–8 min, 100% B; 8–8.1 min, 100–70% B; 8.1–11 min, 70% B. The flow rate was 0.35 mL/min and injection volume was 10 μL. Mass spectrometric detection was conducted on an API 3000 triple quadrupole instrument (Applied Biosystems, Vaughan, ON, Canada) in multiple reaction monitoring (MRM) mode with parameters as follows: nebulizer gas, 10 psi; collision gas, 2 psi; curtain gas, 7 psi; source voltage, 4.5 kV; source temperature, 275 °C. A turbo ionspray electrospray ionization (ESI) interface in positive ionization mode was used (Applied Biosystem, Foster City, CA, USA). The specific precursor to product ion transitions is [M+H] 433 → 301 for erinacine A and 197 → 169 for 2,4,5-TMBA (internal standard). Data analysis was performed with Analyst 1.4.2 software (Applied Biosystems, Concord, ON, Canada).
Before intravenous administration, animals were anesthetized with Avertin (2,2,2-Tribromoethanol, 0.071 M). Blood was collected into heparinized microtubes at scheduled time points and centrifuged at 2404× g for 10 min. The plasma (100 μL) was then mixed with equal volume of internal standard 2,4,5-TMBA (final concentration 25 ng/mL) and 300 μL of ethyl acetate. The mixture was vortexed and centrifuged at 13,845× g for 3 min. The supernatant was removed and the residue was reconstituted with isovolumetric acetonitrile for LC-MS/MS analysis. All animal procedures were approved by the Animal Care and Use Committee of Shih Chien University (IACUC#10405).
All experimental data were presented as mean ± standard deviation (mean ± SD). Maximal plasma concentration (Cmax), and time taken to achieve maximal plasma concentration (Tmax), half-life (T1/2), and area under the plasma concentration − time curve (AUC) were assessed on each animal using the software of WinNonlin (Pharsight Corp., Mountain View, CA, USA) by the non-compartmental model. Applying the pharmacokinetic data of oral administration (po) and intravenous administration (iv), the absolute bioavailability of erinacine A was calculated as [(AUCpo × Doseiv)/(AUCiv × Dosepo)] × 100%.

[2] = Tissue distribution study after single oral administration; type: in vivo, Sprague-Dawley rats; conditions: for Tmax / concentration at 4 h: Sprague-Dawley, rat
Procedure: (§1) The homogenates (100 μL) were then mixed with equal volume of internal standard 2,4,5-TMBA (final concentration 25 ng/mL) and 300 μL of ethyl acetate. The mixture was vortexed and centrifuged at 13,845× g for 3 min. The supernatant was removed and the residue was reconstituted with isovolumetric acetonitrile for LC-MS/MS analysis.

[3] = Excretion study, feces and urine, after single oral administration; type: in vivo, Sprague-Dawley rats
Procedure: as §1, with “[…] Feces” for “The homogenates (100 μL)”, “freeze-dried and grinded before mixing with equal volume of internal standard 2,4,5-TMBA (final concentration 25 ng/mL) and 300 μL of ethyl acetate. Urines were” for “then”

rat plasma = test: Protein binding in plasma by rapid equilibrium dialysis; type: in vitro ADME, Sprague-Dawley rats
Procedure: (§2) Then, the protein binding of erinacine A in the plasma and diluted (4×) tissue homogenates (brain, heart, lung, liver, kidney, stomach, large intestine, and small intestine) was determined by rapid equilibrium dialysis devices with 8000 Da molecular weight cut-off (#89809, Thermo Fisher Scientific, Waltham, MA, USA) according to manufacturer’s guidelines. In brief, the stock solution of erinacine A prepared in methanol was spiked into blank plasma and tissues to yield a final concentration of 200 ng/mL. Two hundred microliter aliquot of spiked samples were then dialysed against 350 µL aliquot of isotonic phosphate buffered saline at 37 °C on an orbital shaker at 250 rpm for 4 h. The resulting sample and buffer dialysates were removed from the chambers, matched with an equal volume of opposite blank matrix, and analyzed by LC-MS/MS. The protein binding of erinacine A is determined by the following Equations (1) and (2):% Free = (concentration at buffer chamber/concentration at sample chamber) × 100%(1) % Bound = 100% − % Free(2)

[4] = Protein binding in diluted (4×) tissue homogenates by rapid equilibrium dialysis; type: in vitro ADME, Sprague-Dawley rats; conditions: Sprague-Dawley, rat, 200 ng/mL, 37 °C, 4 h
Procedure: as §2

[5] = test system: diluted (4×) tissue homogenates; test: as above; type: in vitro ADME, Sprague-Dawley rats; conditions: calculated from protein binding assay with equation of ref 36
Procedure: as §2

[6] = Stability in plasma and tissues at 37 °C for 4 h; type: in vitro ADME, Sprague-Dawley rats; conditions: data not shown
[7] = rat, in vivo, iv, 5 mg/kg
[8] = test system: nerve growth factor (NGF); parameters: method as in doi:10.1016/S0040-4039(00)76760-8; conditions: in vitro; cited from earlier work
[9] = test system: nerve growth factor (NGF); parameters: method as in doi:10.1016/j.nutres.2005.06.001; conditions: rats, 8 mg/kg BW for 5 weeks from birth; cited from earlier work
[10] = test system: transient focal cerebral ischemia; parameters: method as in PMID 25167134; conditions: rat, intraperitoneal 1 mg/kg during the 5 days before onset of ischemia; cited from earlier work
[11] = test system: DLD-1 colorectal adenocarcinoma cells; parameters: method as in doi:10.1016/j.jff.2015.12.031, PMID 31680958; conditions: in vitro; cited from earlier work
DLD-1 xenografts = test system: DLD-1 xenografts; parameters: method as in doi:10.1016/j.jff.2015.12.031, PMID 31680958; conditions: nude mice; cited from earlier work
[12] = test system: insoluble β amyloid and C-terminal fragment of amyloid precursor protein; parameters: method as in PMID 29463001; conditions: cited from earlier work
[13] = parameters: method as in PMID 31022946; conditions: rats, cited from earlier work
[14] = male, Sprague-Dawley, iv, rat plasma, I.V. erinacine A 5 mg/kg
[15] = male, Sprague-Dawley, po, rat plasma, P.O. mycelia extract 2.381 g/kg BW (equivalent to 50 mg/kg erinacine A)
[16] = 0–4 h after oral mycelia extract 2.381 g/kg BW
[17] = collected for 24 h, comparison with ref 22
[18] = unchanged erinacine A, cumulative
[19] = oral mycelia powder equivalent to 50 mg/kg BW erinacine S

SMILES: CC(C)C1=C2C3=CC=C(C=O)C[C@H](O[C@@H]4OC[C@@H](O)[C@H](O)[C@H]4O)[C@]3(C)CC[C@@]2(C)CC1 [erinacine A]
- AUC [1, 14]: 3.12 µg·h/mL
- Cmax [1, 14]: 4.53 ± 3.42 µg/mL
- half-life [1, 14]: 0.0728 ± 0.0758 h
- Tmax ([1]; male, Sprague-Dawley, po, rat plasma, P.O. H. erinaceus mycelia extract 2.381 g/kg BW (equivalent to 50 mg/kg BW erinacine A), n = 6): 6 h
- AUC [1, 15]: 7.62 µg·h/mL
- Cmax [1, 15]: 1.4 ± 1.14 µg/mL
- half-life [1, 15]: 8.19 ± 1.86 h
- concentration at 90 min ([1]; male, Sprague-Dawley, rat, plasma, 2.381 g/kg, oral, at 90 min, read-out: Plasma concentration, first peak): 0.64 µg/mL
- concentration at 150 min ([1]; male, Sprague-Dawley, rat, plasma, 2.381 g/kg, oral, at 150 min, read-out: Plasma concentration, second peak): 0.735 µg/mL
- concentration at 360 min ([1]; male, Sprague-Dawley, rat, plasma, 2.381 g/kg, oral, at 360 min, read-out: Plasma concentration, third peak): 1.25 µg/mL
- bioavailability ([1]; male, Sprague-Dawley, rat, plasma, rats, [(AUCpo × Doseiv)/(AUCiv × Dosepo)] × 100%, po 50 mg/kg equivalent, iv 5 mg/kg, read-out: Absolute Bioavailability): 24.4%
- Earliest detection in plasma after oral administration ([1]; oral mycelia powder equivalent to 50 mg/kg BW erinacine A): 1 min
- Tmax ([2]; brain, oral mycelia extract 2.381 g/kg BW, read-out: Time of peak concentration in brain): 8 h
- concentration at 4 h ([2]; heart, 4 h after oral mycelia extract 2.381 g/kg BW, read-out: Concentration in heart): 1110 ± 264 ng/g
- concentration at 4 h ([2]; kidney, 4 h after oral mycelia extract 2.381 g/kg BW, read-out: Concentration in kidney): 1280 ± 438 ng/g
- concentration at 4 h ([2]; large intestine, 4 h after oral mycelia extract 2.381 g/kg BW, read-out: Concentration in large intestine): 726 ± 336 ng/g
- concentration at 4 h ([2]; liver, 4 h after oral mycelia extract 2.381 g/kg BW, read-out: Concentration in liver): 2830 ± 641 ng/g
- concentration at 4 h ([2]; lung, 4 h after oral mycelia extract 2.381 g/kg BW, read-out: Concentration in lung): 1180 ± 339 ng/g
- concentration at 4 h ([2]; small intestine, 4 h after oral mycelia extract 2.381 g/kg BW, read-out: Concentration in small intestine): 25400 ± 20400 ng/g
- concentration at 4 h ([2]; stomach, 4 h after oral mycelia extract 2.381 g/kg BW (50 mg/kg erinacine A), read-out: Concentration in stomach): 56500 ± 27600 ng/g
- Tmax ([2]; oral mycelia extract 2.381 g/kg BW, read-out: Time of peak concentration in stomach, small intestine, large intestine, liver, heart, lung and kidney): 4 h
- Maximum concentration in brain ([2]; eight hours after oral mycelia extract 2.381 g/kg BW): 0.205 ± 0.079 µg/g
- Detectability in tissues at the end of 24 h ([2]; oral mycelia extract 2.381 g/kg BW): still detectable in GI tract, heart, and liver
- Blood-brain barrier penetration ([2]; rats, oral mycelia extract): can penetrate the blood-brain barrier of rats by the means of passive diffusion
- Feces Concentration [3, 16]: 1.533 ± 2.625 µg/g
- Urine Concentration [3, 16]: 0.248 µg/mL and 0.248 ± 0.210 µg/mL
- Feces Concentration ([3]; 4–8 h): 81.853 ± 99.919 µg/g
- Urine Concentration ([3]; 4–8 h): 0.118 ± 0.103 µg/mL
- Feces Concentration ([3]; 8–12 h): 271.237 µg/g and 271.237 ± 404.357 µg/g
- Urine Concentration ([3]; 8–12 h): 0.059 ± 0.043 µg/mL
- Feces Concentration ([3]; 12–24 h): 122.824 ± 198.611 µg/g
- Urine Concentration ([3]; 12–24 h): 0.055 ± 0.066 µg/mL
- Feces Concentration ([3]; 24–36 h): 4.475 ± 6.477 µg/g
- Urine Concentration ([3]; 24–36 h): 0.021 ± 0.037 µg/mL
- Feces Concentration ([3]; 36–48 h): 0.062 ± 0.099 µg/g
- Urine Concentration ([3]; 36–48 h): 0.016 ± 0.018 µg/mL
- Total amount of unchanged compound in feces relative to erinacine S [3, 17]: more than 20 times
- Total amount of unchanged compound in urine relative to erinacine S [3, 17]: > 2 times
- Cumulative fecal excretion, % of administered dose ([3]; unchanged erinacine A): 2.823%
- Cumulative urinary excretion, % of administered dose ([3]; unchanged erinacine A): 0.017%
- Total Amount excreted in feces [3, 18]: 428.379 ± 368.502 µg
- Total Amount excreted in urine [3, 18]: 2.604 ± 2.149 µg
- Percent free in plasma (rat plasma; 200 ng/mL, 37 °C, 4 h equilibrium dialysis, n = 3): 84.00 ± 2.01%
- Nonspecific binding with the plasma or tissues (rat plasma; 37 °C up to 4 h, preliminary study, data not shown): negligible
- fraction unbound at 4 h, 200 ng/mL ([4]; diluted (4×) brain homogenate, brain homogenate, highest, read-out: Binding with the brain (% bound) (converted)): 0.711
- fraction unbound at 4 h, 200 ng/mL ([4]; diluted (4×) stomach homogenate, stomach homogenate, lowest, read-out: Binding with the stomach (% bound) (converted)): 0.883
- Unbound brain-to-plasma concentration ratio [5]: close to unity
- Stability in plasma and tissues [6]: no degradation was observed
- Toxicity signs [7]: no toxicity signs were observed
- Nerve growth factor (NGF) stimulation [8]: stimulated nerve growth factor (NGF) in vitro
- NGF content in hippocampus and locus coeruleus [9]: increased NGF content
- Levels of acute inflammatory cytokines and ischemia-injury-induced neuronal cell death [10]: significantly reduced
- Proliferation of DLD-1 cells [11]: inhibited the proliferation
- Growth of DLD-1 xenografts (DLD-1 xenografts): inhibited
- Reduction of insoluble β amyloid and C-terminal fragment of amyloid precursor protein [12]: could reduce

SMILES: CC(C)C1=C2[C@H]3CCC4=C(O)C(=O)[C@@]5(O)CO[C@H]6O[C@@H]([C@@H]4[C@]65O)[C@]3(C)CC[C@@]2(C)CC1 [erinacine S]
- Maximum plasma concentration [13, 19]: 0.73 µg/mL
- Time to reach maximum plasma concentration [13, 19]: 270.00 min
- Absolute bioavailability [13]: 15.13%
- Reduction of insoluble β amyloid and C-terminal fragment of amyloid precursor protein [12]: not
